According to patent US6596720B1, “Anti-HIV compositions” (priority 1999, dated 2003):

Key:
HIV GUN-1 strain [1] = test: Antiviral activity against HIV GUN-1 strain in C8166 cells (syncytia count); type: cell-based; settings: HIV GUN-1, C8166 cells, MOI 0.25, 2 days
Method: Antiviral Activity Against HIV GUN-1 Strain in C8166 Cells (Salahuddinn et al., Virology, vol. 129, 51-64(1983))
C8166 cells were transferred to RPMI 1640 medium (supplemented with 10% FCS) at 2×10^5 cells/ml. […] The cells were cultured at 37° C. One hour later, the cells were infected with HIV at multiplicity of infection (MOI) of 0.25 (MOI=0.25) and cultured at 37° C. for 2 days. Then the number of syncytia induced by HIV infection was determined.
Relative infection rate (%), expressed as a percentage, was calculated from the number of HIV-infected cells in the test drug-treated group relative to the number of HIV-infected cells in the drug-free solution-treated group as a control group, by the following equation:
Relative infection rate (%)=(N5/N6)×100
in which N5 is the number of syncytia in the test drug-treated group, and N6 is the number of syncytia in the control group.

MT-2 cells = test: Cytotoxicity against MT-2 cells (trypan blue exclusion); type: cell-based; settings: 2 days, relative to control group
Method: (§1) Cytotoxicity Against MT-2 Cells and MT-4 Cells
(§2) MT-2 cells and MT-4 cells were transferred to RPMI 1640 medium (supplemented with 10% FCS) at 2×10^5 cells/ml. […] The cells were cultured at 37° C. Two days later, the trypan blue exclusion test was carried out and the number of living cells in each group was counted.
(§3) Relative survival rate (%), expressed as a percentage, was calculated from the number of living cells in the test drug-treated group relative to the number of living cells in the drug-free solution-treated group as a control group, by the following equation:
(§4) Relative survival rate (%)=(N3/N4)×100
(§5) in which N3 is the number of living cells in the test drug-treated group, and N4 is the number of living cells in the control group.

HIV GUN-1 strain [2] = test: Antiviral activity against HIV GUN-1 strain in MT-4 cells (fluorescent antibody assay); type: cell-based; settings: HIV GUN-1, MT-4 cells, MOI 0.05, 2 days
Method: (§6) Antiviral activity against HIV GUN-1 strain (Jpn. J. Cancer Res., vol. 78, 11-15(1987)) and HIV IIIB strain (Science, vol. 224, 497-500(1984)) in MT-2 cells and MT-4 cells (Nature, vol. 294, 770-771 (1981))
(§7) MT-2 cells and MT-4 cells were transferred to RPMI 1640 medium (supplemented with 10% fetal calf serum (FCS)) at 2×10^5 cells/ml. […] The cells were cultured at 37° C. One hour later, the cells were infected with HIV at multiplicity of infection of 0.05 (MOI=0.05) and cultured at 37° C. for 2 days. Smears of MT-2 cells and MT-4 cells were prepared and assayed for HIV-positive cells by fluorescent antibody assay (Science, vol. 229, 563(1985)). 3′-Azide-3′-deoxythymidine (hereinafter abbreviated as AZT) was used as a positive control.
(§8) The relative infection rate (%), expressed as a percentage, was calculated from the number of HIV-infected cells in the drug-treated group relative to the number of infected cells in the drug-free solution-treated group as a control group by the following equation:
(§9) Relative infection rate (%)=(N1/N2)×100
(§10) in which N1 is the number of HIV-positive cells in the test drug-treated group, and N2 is the number of HIV-positive cells in the control group.

HIV IIIB strain [3] = test: Antiviral activity against HIV IIIB strain in MT-4 cells (fluorescent antibody assay); type: cell-based; settings: MOI 0.05, 2 days
Method: as §6, §7, §8, §9, §10

HIV GUN-1 strain [4] = test: Antiviral activity against HIV GUN-1 strain in MT-2 cells (fluorescent antibody assay); type: cell-based; settings: HIV GUN-1, MT-2 cells, MOI 0.05, 2 days
Method: as §6, §7, §8, §9, §10

HIV IIIB strain [5] = test: Antiviral activity against HIV IIIB strain in MT-2 cells (fluorescent antibody assay); type: cell-based; settings: MOI 0.05, 2 days
Method: as §6, §7, §8, §9, §10

MT-4 cells = test: Cytotoxicity against MT-4 cells (trypan blue exclusion); type: cell-based; settings: 2 days, relative to control group
Method: as §1, §2, §3, §4, §5

In the case of Cl.N=C1CCCN1Cc1[nH]c(=O)[nH]c(=O)c1Cl [Compound 1, 5-Chloro-6-(2-iminopyrrolidin-1-yl)methyl-2,4(1H,3H)-pyrimidinedione Hydrochloride], the “Change of the maximum tolerated dose of FTD by compound 1” value (beagle dogs; beagle dogs, FTD + compound 1 versus FTD alone) is reported as “approximately tripled” and the “Change of the maximum tolerated dose of FTD by compound 1” value (SD rats; SD rats, FTD + compound 1 versus FTD alone) is reported as “approximately tripled”.
In the case of O=c1[nH]c(=O)n([C@H]2C[C@H](O)[C@@H](CO)O2)cc1C(F)(F)F [FTD, trifluridine], the “Maximum tolerated dose (causing no death, expressed as FTD dose)” value (beagle dogs; male beagle dogs, oral, repeated for 14 days, combination molar ratio FTD/compound 1=1/0.5) is reported as 6 mg/kg, the “Maximum tolerated dose (causing no death, expressed as FTD dose)” value (SD rats; male SD rats, oral, repeated for 14 days, combination molar ratio FTD/compound 1=1/0.5) is reported as 150 mg/kg and the “Infection rate (%)” value (HIV GUN-1 strain [1]; FTD 0.01 μg/ml) is reported as 90%. For the same molecule, the “Infection rate (%)” value (HIV GUN-1 strain [1]; FTD 0.1 μg/ml) was 59%, the “Infection rate (%)” value (HIV GUN-1 strain [1]; FTD 1 μg/ml) was 2% and the “Infection rate (%)” value (HIV GUN-1 strain [1]; FTD 10 μg/ml) was 0%. For the same molecule, the “Infection rate (%)” value (HIV GUN-1 strain [1]; FTD 100 μg/ml) was 0% and the “Infection rate (%)” value (HIV GUN-1 strain [1]; FTD 1000 μg/ml) was 0%.
For Cc1cn([C@H]2C[C@H](N=[N+]=[N-])[C@@H](CO)O2)c(=O)[nH]c1=O [AZT, 3′-Azide-3′-deoxythymidine], the “Relative survival rate (%)” value (MT-2 cells; drug 10 μg/ml) was 100%, the “Relative survival rate (%)” value (MT-2 cells; drug 100 μg/ml) was 100% and the “Relative survival rate (%)” value (MT-2 cells; drug 1000 μg/ml) was 100%. The “Relative infection rate (%)” value (HIV GUN-1 strain [2]; drug 0.001 μg/ml) was 100%, the “Relative infection rate (%)” value (HIV GUN-1 strain [2]; drug 0.01 μg/ml) was 40% and the “Relative infection rate (%)” value (HIV GUN-1 strain [2]; drug 0.1 μg/ml) was 4%. For the same molecule, the “Relative infection rate (%)” value (HIV GUN-1 strain [2]; drug 1 μg/ml) was 0%, the “Relative infection rate (%)” value (HIV GUN-1 strain [2]; drug 10 μg/ml) was 0% and the “Relative infection rate (%)” value (HIV GUN-1 strain [2]; drug 100 μg/ml) was 0%. For the same molecule, the “Relative infection rate (%)” value (HIV GUN-1 strain [2]; drug 1000 μg/ml) was 0%, the “Relative infection rate (%)” value (HIV IIIB strain [3]; drug 0.001 μg/ml) was 100% and the “Relative infection rate (%)” value (HIV IIIB strain [3]; drug 0.01 μg/ml) was 25%. For the same molecule, the “Relative infection rate (%)” value (HIV IIIB strain [3]; drug 0.1 μg/ml) was 5%, the “Relative infection rate (%)” value (HIV IIIB strain [3]; drug 1 μg/ml) was 0% and the “Relative infection rate (%)” value (HIV IIIB strain [3]; drug 10 μg/ml) was 0%. The “Relative infection rate (%)” value (HIV IIIB strain [3]; drug 100 μg/ml) was 0%, the “Relative infection rate (%)” value (HIV IIIB strain [3]; drug 1000 μg/ml) was 0% and the “Relative infection rate (%)” value (HIV GUN-1 strain [4]; drug 0.001 μg/ml) was 100%. The “Relative infection rate (%)” value (HIV GUN-1 strain [4]; drug 0.01 μg/ml) was 30%, the “Relative infection rate (%)” value (HIV GUN-1 strain [4]; drug 0.1 μg/ml) was 10% and the “Relative infection rate (%)” value (HIV GUN-1 strain [4]; drug 1 μg/ml) was 0%. For the same molecule, the “Relative infection rate (%)” value (HIV GUN-1 strain [4]; drug 10 μg/ml) was 0%, the “Relative infection rate (%)” value (HIV GUN-1 strain [4]; drug 100 μg/ml) was 0% and the “Relative infection rate (%)” value (HIV GUN-1 strain [4]; drug 1000 μg/ml) was 0%. For the same molecule, the “Relative infection rate (%)” value (HIV IIIB strain [5]; drug 0.001 μg/ml) was 100%, the “Relative infection rate (%)” value (HIV IIIB strain [5]; drug 0.01 μg/ml) was 20% and the “Relative infection rate (%)” value (HIV IIIB strain [5]; drug 0.1 μg/ml) was 10%. The “Relative infection rate (%)” value (HIV IIIB strain [5]; drug 1 μg/ml) was 0%, the “Relative infection rate (%)” value (HIV IIIB strain [5]; drug 10 μg/ml) was 0% and the “Relative infection rate (%)” value (HIV IIIB strain [5]; drug 100 μg/ml) was 0%. The “Relative infection rate (%)” value (HIV IIIB strain [5]; drug 1000 μg/ml) was 0%, the “Relative survival rate (%)” value (MT-4 cells; drug 10 μg/ml) was 100% and the “Relative survival rate (%)” value (MT-4 cells; drug 100 μg/ml) was 100%. The “Relative survival rate (%)” value (MT-4 cells; drug 1000 μg/ml) was 84%.
